Reference: patent US11472776B2, “Quinazolinones that inhibit the formation of tau oligomers and their method of use” (OLIGOMERIX INC., priority 2016, dated 2022)
pIC50: −log10 of the molar value. Structures can show the parent of a compound that is named as a salt.

How the values were obtained:
[1] = molecular target: T1, recombinant human tau 4R2N (Homo sapiens (Human), UniProt P10636); test: AlphaLisa Assay (ALA), primary screen for inhibition of tau oligomer formation; type: biochemical; conditions: tau target 300 nM, 4 hours at room temperature, compound 0.098 uM-50 uM
Excerpt: (§1) Bacterial recombinant human tau 4R2N (the largest isoform of tau in the central nervous system, 441 amino acids in length, Seq. ID 1) constructs with either 6×-His or StrepII N-terminal epitope tags were purified from bacterial lysate using denaturing conditions to prepare tau in its monomeric form.
ALA Assay: AlphaLisa Assay (ALA) was used as a primary screen for identifying compounds that inhibit tau oligomer formation. It is a bead based assay that only gives signal when the beads are in close proximity to each other. When the tau monomer (target) is incubated it forms higher order aggregates (dimer, trimer, tetramer, etc) so that when the donor and acceptor beads bind to the epitope tags of tau they are in close proximity and generate signal.
Tau target (equal mixture of each construct at 300 nM) was prepared in buffer (Tris-HCl pH 7.4) and was incubated in 96-well plates at room temperature for 4 hours with vehicle control (DMSO) and a dose range of a compound of the disclosure (0.098 uM-50 uM). […] The positive control (non-incubated target) & blank (no tau) were prepared and mixed with beads in bead buffer and the plate was read immediately using the EnVision plate reader (Perkin Elmer).

[2] = molecular target: T1, recombinant human tau 4R2N; test: Confirmatory Assay (CONFA), SDS-PAGE quantification of tau monomer and oligomers; type: biochemical; conditions: tau target 300 nM, 3 hours at room temperature, compound 0.098 uM-50 uM
Method: as §1
CONFA Assay: Confirmatory Assay (CONFA) used as a secondary screen for confirming the mechanism of action of compounds identified as hits using the ALA assay. The assay is performed using a similar procedure as ALA except that it utilizes SDS-PAGE for visualization and quantification of tau monomer and aggregated species (dimer, trimer, tetramer, pentamer, etc.). Only a single construct of tau without epitope tags is necessary, but the assay can use the same target prepared for the ALA assay also.
For the CONFA assay, Tau target (300 nM) was prepared in buffer (Tris-HCl pH 7.4) and was incubated at room temperature for 3 hours with vehicle control (DMSO) and a dose range of a compound of the disclosure (0.098 uM-50 uM). […] AlphaView software (Protein Simple) was used for quantification of tau monomer and oligomers.

[3] = Tolerability over the course of the htau mouse study; type: in vivo; conditions: all doses (10, 40, 100 mg/kg in feed), htau mice
Method: (§2) Four groups of htau mice (n=25 per group) were treated from 2.5 to 6.5 months of age with 0, 10, 40 and 100 mg/kg of the compound of Example 20 milled into feed. The study was performed independently and blinded. The primary endpoint of the study was reduction of insoluble tau aggregates in the brains of the mice with statistical significance. […] Methods for biochemical analyses of tau used in this study have been previously described (Acker CM et al. Sensitive quantitative assays for tau and phospho-tau in transgenic mouse models. Neurobiol Aging. 2013. 34:338). The results in FIG. 1 show in vivo efficacy of the compound in reducing tau pathology. Levels of insoluble tau in the cortices of htau mice treated with the compound of Example 20 were determined using the pan-tau monoclonal antibody (mAb) DA31. These values were normalized to total tau in the lysates of the cortex of each mouse. Error bars indicate standard error of the mean. The P values of comparisons of the groups treated with 10, 40 or 100 mg/kg of the compound of Example 20 to the control group (white bar, 0 mg/kg) are 0.0503 (horizontal hatch bar, 10 mg/kg), 0.0154 (diagonal hatch bar, 40 mg/kg) and 0.0488 (vertical hatch bar, 100 mg/kg). * indicates P value <0.05.

insoluble tau aggregates = test: Reduction of insoluble tau aggregates in the brains of treated htau mice; type: in vivo
Method: as §2

T1 sequence (P10636 other isoform, or with tags, fused parts or gaps): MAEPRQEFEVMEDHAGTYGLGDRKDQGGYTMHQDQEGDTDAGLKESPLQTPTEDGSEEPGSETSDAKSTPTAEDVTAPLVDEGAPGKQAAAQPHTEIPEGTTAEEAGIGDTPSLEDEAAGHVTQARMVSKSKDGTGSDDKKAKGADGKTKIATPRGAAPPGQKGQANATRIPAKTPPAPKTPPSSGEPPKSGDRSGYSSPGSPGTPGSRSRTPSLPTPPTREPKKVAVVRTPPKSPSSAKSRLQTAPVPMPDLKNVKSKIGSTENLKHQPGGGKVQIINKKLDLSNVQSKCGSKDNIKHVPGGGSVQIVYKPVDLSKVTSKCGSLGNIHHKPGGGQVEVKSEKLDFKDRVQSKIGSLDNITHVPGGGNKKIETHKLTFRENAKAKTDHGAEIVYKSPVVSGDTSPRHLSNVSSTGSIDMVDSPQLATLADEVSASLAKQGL

In the case of `CCc1ccc(-n2c(-c3cccnc3)nc3ccccc3c2=O)cc1O` [Ex. 1, 3-(4-Ethyl-3-hydroxyphenyl)-2-(pyridin-3-yl)quinazolin-4(3H)-one], the pIC50 [1] was 5.72 and the pIC50 [2] was 5.38.
For `Cc1ccc(-n2c(-c3cccnc3)nc3ccccc3c2=O)cc1O` [Ex. 20, 3-(4-Methyl-3-Hydroxyphenyl)-2-(Pyridin-3-yl)Quinazolin-4(3H)-One Hydrochloride], the “tolerability over the course of the study” value [3] was “well tolerated”, the “toxic effects on weight, behavior or morbidity” value [3] was “did not cause toxic effects on weight, behavior or morbidity” and the “reduction of insoluble tau, statistical significance” value (insoluble tau aggregates; 40 mg/kg and 100 mg/kg doses, male htau mice) was “achieved with statistical significance”. For the same compound, the “in vivo activity: reduction of insoluble tau aggregates in the brains of treated htau mice” value (insoluble tau aggregates; FIG. 1 legend) was “achieved with statistical significance” and the “reduction of insoluble tau” value (insoluble tau aggregates; htau mice, 10, 40 and 100 mg/kg milled into feed, from 2.5 to 6.5 months of age) was “reduced insoluble tau at all doses”.
